Assay results as given in US10519148B2, “Acrylic acid derivative, preparation method and use in medicine thereof” (Zhejiang Hisun Pharmaceutical Co., Ltd., priority 2015, dated 2019).

Target: T1, ERα (Homo sapiens, UniProt P03372)
T1 construct: host or cells: MCF-7
T1 sequence (P03372 1-595): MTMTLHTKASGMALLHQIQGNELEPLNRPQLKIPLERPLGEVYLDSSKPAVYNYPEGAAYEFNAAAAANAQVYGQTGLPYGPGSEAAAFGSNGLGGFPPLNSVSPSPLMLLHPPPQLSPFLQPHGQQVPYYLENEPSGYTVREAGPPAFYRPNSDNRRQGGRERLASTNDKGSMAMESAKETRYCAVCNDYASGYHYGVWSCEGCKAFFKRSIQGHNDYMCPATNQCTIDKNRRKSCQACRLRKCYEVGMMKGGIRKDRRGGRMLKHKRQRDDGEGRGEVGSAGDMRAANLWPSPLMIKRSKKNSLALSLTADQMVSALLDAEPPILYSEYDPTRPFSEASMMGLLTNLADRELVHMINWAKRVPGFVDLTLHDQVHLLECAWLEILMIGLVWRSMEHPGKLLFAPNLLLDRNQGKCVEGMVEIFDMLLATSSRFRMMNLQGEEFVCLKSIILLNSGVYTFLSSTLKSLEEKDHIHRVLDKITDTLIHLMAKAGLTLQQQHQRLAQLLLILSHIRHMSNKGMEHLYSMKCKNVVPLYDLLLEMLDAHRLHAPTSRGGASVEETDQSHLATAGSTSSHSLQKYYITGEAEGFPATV
Assay: ERα down-regulation immunofluorescence assay in MCF-7 cells
Format: cell-based
Conditions: immunofluorescence of ERα level, read-out: IC50 (nM) ERα down-degradation
Protocol: The down-regulation of the preferred compounds of the present invention on the protein level of ERα is evaluated by immunofluorescence assay using human breast cancer cell line MCF-7. MCF-7 cells used in the experiment were revived directly from frozen cells (about 5×10^6). The MCF-7 frozen cell line (Sigma D5921) purchased from Sigma was stored in DMEM medium containing 2 mM […]. 5% (v/v) Charcoal/Dextran-treated bovine serum […] were added to the revived MCF-7 cells and the cell concentration was determined using Coulter Counter.
The cells used for the test were diluted to 3.75×10^4 cells/mL with culture medium and 40 μL/well of the above cell suspension was transferred to 384-well black transparent bottom plates and incubated overnight at 37° C., 5% CO2. 10 mM compound stock solutions were diluted to a series of test concentrations (10 mM, 0.1 mM, 1 μM, 0.01 μM etc.) and dispensed into cell plates. 20 μL of 11.1% (v/v) aqueous formaldehyde solution (phosphate buffered saline) was added to each of the different concentrations of the test compounds and MCF-7 cell culture solution (40 μL), and the final concentration of formaldehyde in the solution was 3.7% (v/v). Cells were fixed at room temperature for 20 minutes, washed twice with 250 μL of PBS/Proclin, and then 40 μL of PBS/Proclin was added and refrigerated at 4° C. The immunostaining of the protein was performed using the automated AutoElisa kit. The PBS/Proclin solution was aspirated from each plate well and then 40 μL of PBS containing 0.5% Tween 20 (v/v) was added for cell permeation. After one hour, the plate was washed with 250 μL of PBS/0.05% Tween 20/Proclin for three times, and 20 μL of ERα rabbit monoclonal antibody (Thermofisher) in PBS/Tween™ 20/3% (w/v) BSA solution (1:1000) was added. The plates were incubated overnight at 4° C., washed three times with 250 μL of PBS/Tween™ 20/Proclin, and then 20 μL of goat anti-rabbit IgG AlexaFluor 594 or goat anti-rabbit IgG AlexaFluor 488 antibody (containing Hoechst stain (1:5000) in PBS/Tween™ 20/3% (w/v) BSA solution was added, and the system was incubated at room temperature for one hour. After the plates were washed three times with 250 μL of PBS/0.05% (v/v) Tween™ 20/Proclin, 20 μL of PBS was added and the paltes were kept in dark place at 4° C. The level of estrogen receptor ERα in MCF-7 cells was calculated through Cellomics Arrayscan detection of fluorescence emission intensity at two emission wave bands at 594 nm (24-hour time point) and 488 nm (5-hour time point). The average fluorescence emission intensity of each cell is positively correlated with the ERα receptor level of the cell. The primitive fluorescence data was used to obtain the fitting curve by software such as Origin or Genedata. Half maximal inhibitory concentration IC50 was used to characterize the down-regulation of estrogen receptor ERα by the test compounds, which is the concentration of the test compound when the fluorescence emission intensity is reduced to 50% of the average maximum fluorescence intensity.

Structure (SMILES) | DC50
C[C@@H]1Cc2c([nH]c3cccc(F)c23)[C@@H](c2c(F)cc(/C=C/C(=O)O)cc2F)N1CC1(F)CC1 [Example 12, (E)-3-(3,5-difluoro-4-((1R,3R)-5-fluoro-2-((1-fluorocyclopropyl)methyl)-3-methyl-2,3,4,9-tetrahydro-1H-pyrido[3,4-b]indol-1-yl)phenyl)acrylic acid] | 0.1 to 10 nM
C[C@@H]1Cc2c([nH]c3ccccc23)[C@@H](c2c(F)cc(/C=C/C(=O)O)cc2F)N1CC1(F)CC1 [Example 1, (E)-3-(3,5-difluoro-4-((1R,3R)-2-((1-fluorocyclopropyl)methyl)-3-methyl-2,3,4,9-tetrahydro-1H-pyrido[3,4-b]indol-1-yl)phenyl)acrylic acid] | 0.1 to 10 nM
